Measurements as given in the supplement of paper PMC10331698.
± gives the standard deviation of the averaged measurements.

Legend:
Assay in all cases: level (log10 ratio to DMSO vehicle control); higher = higher biomarker level / cell amount than vehicle control
Conditions in all cases: in DMSO
[1] = compound: O=C(O)C(F)(F)C(F)(F)C(F)(F)C(F)(F)C(F)(F)C(F)(F)C(F)(F)C(F)(F)Cl [9-Chloro-perfluorononanoic acid]
Procedure: (§1)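 BioMAP Diversity Plus panel of 12 human primary cell co-culture systems (3C, 4H, LPS, SAg, BT, BF4T, BE3C, CASM3C, HDF3CGF, KF3CT, MyoF, Mphg). Compounds were added 1 h before stimulation and left for 24 h (MyoF 48 h; BT 72 h for soluble read-outs or 6 d for IgG). Biomarkers were read by ELISA, cytotoxicity by SRB, PBMC viability and proliferation by Alamar Blue. Each well value was divided by the mean of 8 DMSO control wells on the same plate and log10 transformed; duplicate blinded samples were tested at 4 concentrations.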

1H,1H-Heptafluorobutanol = compound: OCC(F)(F)C(F)(F)C(F)(F)F [1H,1H-Heptafluorobutanol]
Procedure: as §1

[2] = compound: C=C(C)C(=O)OCC(F)(F)C(F)(F)C(F)(F)C(F)(F)C(F)(F)C(F)(F)C(F)(F)F
Procedure: as §1

Perfluorohexanoic acid = compound: O=C(O)C(F)(F)C(F)(F)C(F)(F)C(F)(F)C(F)(F)F [Perfluorohexanoic acid]
Procedure: as §1

[3] = compound: O=S(=O)(O)C(F)(F)C(F)(F)C(F)(F)C(F)(F)C(F)(F)C(F)(F)C(F)(F)C(F)(F)F [Perfluorooctanesulfonic acid]
Procedure: as §1

[4] = compound: FC(F)(F)C(F)(F)C(F)(F)C(F)(F)C(F)(F)C(F)(F)C(F)(F)CCI [1-Iodo-1H,1H,2H,2H-perfluorononane]
Procedure: as §1

[5] = compound: O=P(O)(O)CCC(F)(F)C(F)(F)C(F)(F)C(F)(F)C(F)(F)C(F)(F)C(F)(F)C(F)(F)F [((Perfluorooctyl)ethyl)phosphonic acid]
Procedure: as §1

Row | Test System | level (log10) ([1]; 6700 nM) | level (log10) ([1]; 20000 nM) | level (log10) (1H,1H-Heptafluorobutanol; 6700 nM) | level (log10) (1H,1H-Heptafluorobutanol; 20000 nM) | level (log10) (1H,1H-Heptafluorobutanol; 60000 nM) | level (log10) ([2]; 6700 nM) | level (log10) ([2]; 20000 nM) | level (log10) (Perfluorohexanoic acid; 6700 nM) | level (log10) (Perfluorohexanoic acid; 20000 nM) | level (log10) (Perfluorohexanoic acid; 60000 nM) | level (log10) ([3]; 6700 nM) | level (log10) ([3]; 20000 nM) | level (log10) ([3]; 60000 nM) | level (log10) ([4]; 6700 nM) | level (log10) ([4]; 20000 nM) | level (log10) ([5]; 6700 nM) | level (log10) ([5]; 20000 nM) | level (log10) ([5]; 60000 nM)
1 | 4H:CD62P/P-selectin | -0.001 ± 0.065 | 0.0815 ± 0.023 | 0.0195 ± 0.064 | -0.007 ± 0.14 | 0.044 ± 0.15 | -0.0205 ± 0.076 | -0.0315 ± 0.063 | 0.0235 ± 0.064 | 0.0555 ± 0.032 | 0.0255 ± 0.028 | 0.0345 ± 0.0078 | 0.061 ± 0.016 | 0.097 ± 0.018 | 0.0005 ± 0.037 | -0.0185 ± 0.06 | -0.0285 ± 0.019 | -0.0235 ± 0.015 | -0.126 ± 0.022
2 | 4H:CD87/uPAR | 0.0055 ± 0.033 | 0.002 ± 0.0099 | -0.0055 ± 0.035 | 0.004 ± 0.071 | 0.032 ± 0.09 | -0.019 ± 0.025 | -0.0015 ± 0.028 | 0.0025 ± 0.042 | -0.002 ± 0.011 | 0.0205 ± 0.039 | 0.07 ± 0.033 | 0.065 ± 0.014 | 0.0945 ± 0.049 | 0.0135 ± 0.00071 | 0.0025 ± 0.026 | 0.018 ± 0.058 | -0.003 ± 0.024 | 0.102 ± 0.0064
3 | 4H:CD106/VCAM-1 | -0.0145 ± 0.0078 | 0.0035 ± 0.013 | 0 ± 0.03 | 0.0325 ± 0.023 | 0.027 ± 0.048 | -0.0205 ± 0.00071 | 0.0005 ± 0.021 | -0.006 ± 0.028 | 0.0095 ± 0.00071 | 0.041 ± 0.045 | 0.016 ± 0.0085 | -0.029 | -0.0155 ± 0.0064 | -0.003 ± 0.027 | -0.0585 ± 0.083 | 0.011 ± 0.0099 | -0.0095 ± 0.016 | -0.002 ± 0.0028
4 | 4H:SRB | -0.0015 ± 0.00071 | -0.0055 ± 0.0035 | -0.005 ± 0.0071 | -0.0005 ± 0.013 | 0.0065 ± 0.005 | 0.0005 ± 0.029 | -0.0035 ± 0.018 | -0.002 ± 0.0057 | -0.0105 ± 0.00071 | 0.0045 ± 0.015 | -0.0005 ± 0.012 | -0.0065 ± 0.011 | -0.0085 ± 0.023 | 0.0165 ± 0.0092 | 0.024 ± 0.024 | -0.0005 ± 0.0064 | 0.0025 ± 0.022 | -0.055 ± 0.052
5 | 4H:VEGFR2 | -0.108 ± 0.011 | -0.0395 ± 0.013 | 0.0085 ± 0.026 | -0.0015 ± 0.0035 | 0.003 ± 0.035 | 0.0165 ± 0.0064 | 0.0365 ± 0.05 | -0.003 ± 0.021 | -0.009 ± 0.014 | -0.001 ± 0.024 | 0.0265 ± 0.029 | 0.0155 ± 0.0064 | 0.019 ± 0.042 | -0.0015 ± 0.026 | 0.0225 ± 0.06 | -0.016 ± 0.033 | -0.024 ± 0.035 | 0.007 ± 0.0057
6 | BE3C:CD54/ICAM-1 | 0.0145 ± 0.018 | -0.033 ± 0.014 | -0.0035 ± 0.0092 | -0.0105 ± 0.00071 | 0.0085 ± 0.011 | 0.007 ± 0.0014 | 0.006 ± 0.0085 | 0.0065 ± 0.00071 | -0.0145 ± 0.0064 | -0.014 ± 0.013 | 0.016 ± 0.011 | 0.0665 ± 0.00071 | -0.263 ± 0.21 | 0.0115 ± 0.005 | -0.009 ± 0.016 | -0.0275 ± 0.00071 | -0.024 | 0.0045 ± 0.012
7 | BE3C:CD87/uPAR | 0.0445 ± 0.0021 | -0.0005 ± 0.039 | -0.0115 ± 0.0092 | 0.032 ± 0.018 | 0.0015 ± 0.021 | 0.0015 ± 0.016 | -0.004 ± 0.023 | -0.002 ± 0.0085 | -0.0105 ± 0.00071 | 0.0205 ± 0.00071 | 0.0465 ± 0.005 | 0.081 ± 0.045 | 0.0355 ± 0.0021 | 0.0115 ± 0.018 | 0.016 ± 0.0014 | 0.0235 ± 0.025 | 0.04 ± 0.035 | 0.079 ± 0.038
8 | BE3C:CXCL8/IL-8 | 0.0025 ± 0.025 | -0.102 ± 0.049 | 0.0275 ± 0.063 | 0 ± 0.04 | 0.003 ± 0.033 | 0.011 ± 0.024 | 0.0275 ± 0.015 | 0.0095 ± 0.042 | 0.0135 ± 0.00071 | 0.017 ± 0.021 | -0.0875 ± 0.0035 | -0.136 ± 0.0021 | -0.348 ± 0.25 | 0.018 ± 0.11 | 0.0505 ± 0.12 | 0.0305 ± 0.033 | 0.019 ± 0.028 | -0.001 ± 0.048
